From patent US11174245B2, “Benzimidazole compounds and derivatives as EGFR inhibitors” (Boehringer Ingelheim International GmbH, priority 2018, dated 2021)
Read-outs that look alike come from different tables or passages of the source.

Tests used:
[1] = biological target: EGFR (d746-750 T790M C797S) (Homo sapiens (Human), UniProt P00533, C797S/DEL746-750/T790M); assay: Biochemical EGFR inhibition assay (TR-FRET, poly-GT substrate), EGFR d746-750 T790M C797S; conditions: 100 μM ATP
Description: (§1) Biochemical EGFR Inhibition Assays
(§2) Initially, the inhibitory effect of compounds according to the invention is measured in biochemical assays which measure the phosphorylation activity of EGFR enzyme forms on poly-GT substrate in the presence of different concentrations of ATP (5 μM and 100 μM final assay concentration).
(§3) The following enzyme forms of EGFR are representative examples that can be used in these assays at the given concentrations:
(§4) For the chosen highest assay concentration of 100 μM, 150 nL of compound solution is transferred from a 10 mM DMSO compound stock solution. A series of eleven fivefold dilutions per compound is transferred to the assay plate, compound dilutions are tested in duplicates. DMSO is added as backfill to a total volume of 150 nL. The assay runs on a fully automated robotic system.
(§5) These biochemical EGFR enzyme form compound dose-response assays quantify the kinase activity via phosphorylation of a tagged poly-GT substrate. The results of the assay are provided as IC50 values.

[2] = biological target: EGFR del19 T790M C797S protein in Ba/F3 cells (Homo sapiens, UniProt P00533, C797S/DEL746-750/T790M); assay: pEGFR assay (AlphaScreen Surefire, EGFR Tyr1068 phosphorylation); type: cell-based
Outline: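 Transduced Ba/F3 cells, puromycin-selected and grown IL-3 independent, were treated with compound at 60.000 cells/well for 4 h at 37° C. Lysis followed for 20 min at room temperature, and Tyr1068 phospho-EGFR in lysate was detected after 2 h dark incubation. Results are IC50 values.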

[3] = biological target: EGFR (mutated) 695-1022, T790M, C797S, L858R (Homo sapiens (Human), UniProt P00533, C797S/L858R/T790M); assay: Biochemical EGFR inhibition assay (TR-FRET, poly-GT substrate), EGFR T790M C797S L858R
Description: as §1, §2, §3, §4, §5

EGFR wt = EGFR wt (Homo sapiens (Human), UniProt P00533); assay: Biochemical EGFR inhibition assay (TR-FRET, poly-GT substrate), EGFR wt
Description: as §1, §2, §3, §4, §5

[4] = read-out: LR_TM_CS (5 μM ATP) IC50, 5 μM ATP
[5] = read-out: LR_TM_CS (100 μM ATP) IC50, 100 μM ATP
[6] = read-out: wt (5 μM ATP) IC50, 5 μM ATP
[7] = read-out: wt (100 μM ATP) IC50, 100 μM ATP

Sequence of EGFR (mutated) 695-1022, T790M, C797S, L858R (P00533 695-1022 T790M/C797S/L858R): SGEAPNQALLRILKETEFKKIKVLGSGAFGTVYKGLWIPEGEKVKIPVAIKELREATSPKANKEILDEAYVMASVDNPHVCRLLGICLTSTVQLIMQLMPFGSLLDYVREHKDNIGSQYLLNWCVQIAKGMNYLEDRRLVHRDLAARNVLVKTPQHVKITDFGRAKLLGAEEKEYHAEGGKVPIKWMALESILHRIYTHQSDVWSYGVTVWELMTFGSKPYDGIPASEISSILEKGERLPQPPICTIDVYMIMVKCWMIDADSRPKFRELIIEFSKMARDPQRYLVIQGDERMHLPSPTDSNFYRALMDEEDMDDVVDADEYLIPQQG
Sequence of EGFR del19 T790M C797S protein in Ba/F3 cells (P00533 with tags, fused parts or gaps C797S/DEL746-750/T790M limits assumed): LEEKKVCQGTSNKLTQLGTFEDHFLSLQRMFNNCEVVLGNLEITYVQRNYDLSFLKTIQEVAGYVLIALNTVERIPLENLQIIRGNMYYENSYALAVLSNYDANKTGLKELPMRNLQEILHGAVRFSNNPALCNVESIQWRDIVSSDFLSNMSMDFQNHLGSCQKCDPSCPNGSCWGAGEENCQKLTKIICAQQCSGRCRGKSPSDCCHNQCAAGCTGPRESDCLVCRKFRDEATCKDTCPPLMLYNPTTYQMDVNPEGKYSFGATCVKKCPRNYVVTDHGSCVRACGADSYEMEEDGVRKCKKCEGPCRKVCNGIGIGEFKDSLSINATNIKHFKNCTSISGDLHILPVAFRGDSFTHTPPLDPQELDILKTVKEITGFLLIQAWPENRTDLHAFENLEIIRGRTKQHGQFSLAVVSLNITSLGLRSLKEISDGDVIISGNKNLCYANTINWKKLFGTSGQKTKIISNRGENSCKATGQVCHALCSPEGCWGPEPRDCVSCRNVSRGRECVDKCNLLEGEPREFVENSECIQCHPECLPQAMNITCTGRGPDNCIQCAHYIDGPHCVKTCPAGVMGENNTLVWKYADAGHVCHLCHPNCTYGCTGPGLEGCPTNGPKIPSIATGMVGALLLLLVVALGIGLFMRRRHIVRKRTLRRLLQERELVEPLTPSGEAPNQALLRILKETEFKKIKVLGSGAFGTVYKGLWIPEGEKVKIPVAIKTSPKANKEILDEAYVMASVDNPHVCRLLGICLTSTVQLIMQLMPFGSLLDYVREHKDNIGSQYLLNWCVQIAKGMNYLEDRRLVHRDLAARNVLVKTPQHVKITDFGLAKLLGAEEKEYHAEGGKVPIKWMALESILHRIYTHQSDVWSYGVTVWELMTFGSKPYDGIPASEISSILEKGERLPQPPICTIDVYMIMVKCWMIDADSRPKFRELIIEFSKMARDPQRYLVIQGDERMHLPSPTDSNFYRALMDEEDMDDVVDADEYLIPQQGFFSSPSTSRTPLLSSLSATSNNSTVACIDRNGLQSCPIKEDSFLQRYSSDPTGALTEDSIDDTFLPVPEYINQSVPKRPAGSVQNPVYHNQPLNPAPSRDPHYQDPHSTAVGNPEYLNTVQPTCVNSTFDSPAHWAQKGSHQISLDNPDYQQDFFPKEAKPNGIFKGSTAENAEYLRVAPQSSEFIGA
Sequence of EGFR (d746-750 T790M C797S) (P00533 other isoform, or with tags, fused parts or gaps T790M/C797S/del 1-694/del 746-750 limits assumed): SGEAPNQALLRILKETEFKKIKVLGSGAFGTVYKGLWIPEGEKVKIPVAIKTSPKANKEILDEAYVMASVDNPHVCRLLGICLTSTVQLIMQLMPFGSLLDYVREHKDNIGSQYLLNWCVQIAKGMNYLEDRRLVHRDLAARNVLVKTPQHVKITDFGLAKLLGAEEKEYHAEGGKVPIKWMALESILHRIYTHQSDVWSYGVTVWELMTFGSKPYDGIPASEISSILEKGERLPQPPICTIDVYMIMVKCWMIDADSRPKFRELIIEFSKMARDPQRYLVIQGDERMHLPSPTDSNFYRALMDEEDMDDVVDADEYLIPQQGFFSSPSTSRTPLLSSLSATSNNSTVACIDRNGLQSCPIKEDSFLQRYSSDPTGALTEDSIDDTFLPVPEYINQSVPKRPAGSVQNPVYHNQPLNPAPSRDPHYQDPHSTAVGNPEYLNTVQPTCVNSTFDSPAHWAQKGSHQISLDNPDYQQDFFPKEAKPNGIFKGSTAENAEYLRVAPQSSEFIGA
Sequence of EGFR wt (P00533 25-1210): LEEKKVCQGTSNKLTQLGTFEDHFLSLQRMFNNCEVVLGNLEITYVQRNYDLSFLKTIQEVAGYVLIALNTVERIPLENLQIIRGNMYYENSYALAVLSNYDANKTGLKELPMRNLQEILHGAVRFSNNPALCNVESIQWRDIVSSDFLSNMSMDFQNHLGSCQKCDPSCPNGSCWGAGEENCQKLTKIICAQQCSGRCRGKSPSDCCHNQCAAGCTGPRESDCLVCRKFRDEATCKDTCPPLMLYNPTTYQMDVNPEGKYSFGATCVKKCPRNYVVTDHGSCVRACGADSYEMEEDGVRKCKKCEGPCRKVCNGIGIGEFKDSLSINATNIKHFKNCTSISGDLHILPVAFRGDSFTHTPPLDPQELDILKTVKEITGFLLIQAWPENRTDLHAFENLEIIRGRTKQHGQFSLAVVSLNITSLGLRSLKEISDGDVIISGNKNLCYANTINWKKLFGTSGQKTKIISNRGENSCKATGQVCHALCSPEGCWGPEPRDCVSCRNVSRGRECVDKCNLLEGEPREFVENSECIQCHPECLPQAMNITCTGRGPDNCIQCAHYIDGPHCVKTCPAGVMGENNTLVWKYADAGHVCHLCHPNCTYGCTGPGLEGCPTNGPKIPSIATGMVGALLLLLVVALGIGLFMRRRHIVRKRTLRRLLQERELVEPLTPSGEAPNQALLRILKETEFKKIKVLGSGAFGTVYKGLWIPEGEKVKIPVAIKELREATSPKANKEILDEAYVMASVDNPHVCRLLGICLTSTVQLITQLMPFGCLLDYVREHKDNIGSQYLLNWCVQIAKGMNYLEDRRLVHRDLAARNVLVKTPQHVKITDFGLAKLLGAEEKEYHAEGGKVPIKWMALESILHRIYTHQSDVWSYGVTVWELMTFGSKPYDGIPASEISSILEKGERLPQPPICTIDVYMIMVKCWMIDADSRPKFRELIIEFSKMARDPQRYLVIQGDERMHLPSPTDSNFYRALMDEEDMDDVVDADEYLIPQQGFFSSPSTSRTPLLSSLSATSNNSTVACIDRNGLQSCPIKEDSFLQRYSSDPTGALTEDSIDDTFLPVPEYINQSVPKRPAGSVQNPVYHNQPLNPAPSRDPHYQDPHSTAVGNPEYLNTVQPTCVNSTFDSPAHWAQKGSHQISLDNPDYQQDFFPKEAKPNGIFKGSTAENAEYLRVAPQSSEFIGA

Structure (SMILES)	IC50 [1]	IC50 [2]	IC50 [3, 4]	IC50 [3, 5]	IC50 (EGFR wt; [6])	IC50 (EGFR wt; [7])
CC(C)Cn1/c(=N/C(=O)c2ccnc(-c3cnn(C)c3)c2)[nH]c2ccccc21 [I-012]	10.5 nM	25 nM	1.9 nM	64.6 nM	403 nM	> 100000 nM
CN1CCC(c2ccc3c(c2)[nH]/c(=N\C(=O)c2ccnc(-c4cnn5cccnc45)c2)n3CC(C)(C)O)CC1 [I-032]	0.6 nM	1 nM		3 nM		366 nM
Cc1c(-c2cc(C(=O)/N=c3\[nH]c4ccccc4n3C3CCCC3)ccn2)cnn1C [I-004]	4.7 nM	13 nM		38.5 nM		1950 nM
CN1CCC(c2ccc3c(c2)[nH]/c(=N\C(=O)c2ccnc(-n4cnc5cccc(F)c54)c2)n3CC(C)(C)O)CC1 [I-030]	3.4 nM	6 nM		25.5 nM		1960 nM
CCCn1/c(=N/C(=O)c2ccnc(-c3cnn(C)c3)c2)[nH]c2ccccc21 [I-014]	48.8 nM	94 nM		146 nM		> 100000 nM
CN1CCC(c2ccc3c(c2)[nH]/c(=N\C(=O)c2ccnc(-c4cnn(C)c4)c2)n3CC(C)(C)O)CC1 [I-021]	4.9 nM	4 nM		27.7 nM		876 nM
CC(=O)N1CCC(c2ccc3c(c2)[nH]/c(=N\C(=O)c2ccnc(-c4cnn(C)c4C)c2)n3CC(C)(C)O)CC1 [I-026]	4.4 nM	7 nM		34.5 nM		1150 nM
CC(C)(O)Cn1/c(=N/C(=O)c2ccnc(-c3cnn4ccccc34)c2)[nH]c2ccccc21 [I-023]	7.7 nM	7 nM		78.2 nM		> 100000 nM
O=C(/N=c1\[nH]c2ccccc2n1C1CCCC1)c1ccnc(-c2cccnc2)c1 [I-002]	4.6 nM	9 nM		67.4 nM		2510 nM
Cc1c(-c2cc(C(=O)/N=c3\[nH]c4ccccc4n3CC(C)(C)O)ccn2)cnn1C [I-017]	14.2 nM	7 nM	3.9 nM	111 nM	1880 nM	9960 nM
COc1ccncc1-c1cc(C(=O)/N=c2\[nH]c3cc(C4CCN(C(C)=O)CC4)ccc3n2CC(C)(C)O)ccn1 [I-031]	1.2 nM	1 nM				
CC(C)(O)Cn1/c(=N/C(=O)c2ccnc(-c3cccnc3)c2)[nH]c2cc(C3CCCOC3)ccc21 (stereo not drawn) [I-052]	6.6 nM	6 nM		189 nM		> 100000 nM
Cn1cc(-c2cc(C(=O)/N=c3\[nH]c4ccccc4n3CC(C)(C)O)ccn2)cn1 [I-001]	71.7 nM	43 nM				
CC(C)(O)Cn1/c(=N/C(=O)c2ccnc(-c3cccnc3)c2)[nH]c2cc(CC(=O)N3CCCCC3)ccc21 [I-130]		5 nM		178 nM		> 100000 nM
CC(C)(O)Cn1/c(=N/C(=O)c2ccnc(-c3ccccc3)c2)[nH]c2ccccc21 [I-064]		9 nM	13.1 nM	267 nM	> 4000 nM	> 100000 nM
Cn1cc(-c2cc(C(=O)/N=c3\[nH]c4cc(CC#N)ccc4n3CC(C)(C)O)ccn2)cn1 [I-199]		15 nM	6.8 nM		1520 nM	
COc1ccccc1-c1cc(C(=O)/N=c2\[nH]c3cc(C4CCN(C(C)=O)C4)ccc3n2CC(C)(C)O)ccn1 (stereo not drawn) [I-158]		6 nM	1.5 nM		56.3 nM	
COc1ccccc1-c1cc(C(=O)/N=c2\[nH]c3ccccc3n2[C@H]2CCC[C@@H](O)C2)ccn1 [I-118]		3 nM	0.7 nM		34.5 nM	

Structure (SMILES)	IC50 [1]	IC50 [2]	IC50 [3, 4]	IC50 [3, 5]	IC50 (EGFR wt; [6])	IC50 (EGFR wt; [7])
Cc1cc(C(=O)/N=c2\[nH]c3ccc(CN4CCOCC4)cc3n2CC(C)(C)O)cc(-c2cnn(C)c2)n1 [I-213]		45 nM	54.1 nM		> 100000 nM	
COc1ccc(F)cc1-c1cc(C(=O)/N=c2\[nH]c3ccccc3n2[C@H]2CC[C@@H](O)CC2)ccn1 [I-157]		5 nM	4.6 nM		70.4 nM	
Cc1cc(C(=O)/N=c2\[nH]c3ccccc3n2C2CCCS(=O)(=O)C2)cc(-c2cnn(C)c2)n1 (stereo not drawn) [I-217]		75 nM	33 nM		> 100000 nM	
CN(C)Cc1cccc(-c2cc(C(=O)/N=c3\[nH]c4ccccc4n3CC(C)(C)O)ccn2)c1 [I-102]		2 nM	1 nM	13.7 nM	213 nM	6060 nM
Cc1cc(C(=O)/N=c2\[nH]c3ccc(CN4CCN(C)CC4)cc3n2CC(C)(C)O)cc(-c2cnn(C)c2)n1 [I-214]		38 nM	10.1 nM		9660 nM	
O=C(/N=c1\[nH]c2ccccc2n1[C@H]1CC[C@@H](O)CC1)c1ccnc(-c2ccccc2OC(F)F)c1 [I-163]		7 nM	10.4 nM		110 nM	
Cn1cc(-c2cc(C(=O)/N=c3\[nH]c4ccccc4n3[C@H]3CC[C@@H](O)CC3)cc(CF)n2)cn1 [I-216]		17 nM	8.1 nM		2670 nM	
O=C(/N=c1\[nH]c2ccccc2n1[C@H]1CC[C@@H](O)CC1)c1ccnc(-c2ccccc2)c1 [I-107]		4 nM	1.8 nM	45.7 nM	336 nM	> 100000 nM
CNc1cc(C(=O)/N=c2\[nH]c3ccccc3n2[C@H]2CC[C@@H](O)CC2)cc(-c2cnn(C)c2)n1 [I-215]		14 nM	4.9 nM		8380 nM	
COc1ccccc1-c1cc(C(=O)/N=c2\[nH]c3ccccc3n2[C@H]2CC[C@@H](O)CC2)ccn1 [I-108]		3 nM	0.6 nM	10.3 nM	19.3 nM	1010 nM
Cn1cc(-c2cc(C(=O)/N=c3\[nH]c4cc(CCCO)ccc4n3CC(C)(C)O)ccn2)cn1 [I-184]		19 nM	7.8 nM		1520 nM	
COc1ccncc1-c1cc(C(=O)/N=c2\[nH]c3ccccc3n2[C@H]2CC[C@@H](O)CC2)cc(C#N)n1 [I-167]		7 nM	4.6 nM		995 nM	
Cn1cc(-c2cc(C(=O)/N=c3\[nH]c4ccccc4n3[C@@H]3CCC[C@H](O)C3)ccn2)cn1 [I-128]		7 nM	4 nM		1130 nM	
O=C(/N=c1\[nH]c2ccccc2n1[C@H]1CC[C@@H](O)CC1)c1ccnc(-c2coc3cccnc23)c1 [I-156]		5 nM	13.3 nM		3150 nM	
Cc1cccc(-c2cc(C(=O)/N=c3\[nH]c4ccccc4n3[C@H]3CC[C@@H](O)CC3)ccn2)c1 [I-161]		6 nM	2.4 nM		205 nM	
CC(=O)N1CCC(c2ccc3c(c2)[nH]/c(=N\C(=O)c2cc(C)nc(-c4cnn(C)c4)c2)n3[C@H]2CC[C@@H](O)CC2)CC1 [I-205]		8 nM	3.6 nM		1480 nM	
Cn1cc(-c2cc(C(=O)/N=c3\[nH]c4ccccc4n3[C@H]3CC[C@@H](O)CC3)cc(N)n2)cn1 [I-211]		1 nM	0.3 nM		249 nM	
